One assay has as its system HCC827 cells. Nature of the assay: Western blot of protein levels in HCC827 parental cells. The class given is cell-based, human. Particulars: erlotinib 2.5 nanomolar; vs non-treated cells. An excerpt:
Levels of p-EGFR(Tyr1068), EGFR, Hsp27, Cleaved PARP, Cleaved and whole Caspase-3, and beta-actin (cell protein control) were detected.
On the technique in general: In western blotting, separated proteins are transferred to a membrane and probed.

Another assay has as its system Hsp27 OE A549 cells. Nature of the assay: Hsp27-overexpressing A549 cells: western blotting and flow cytometry after Erlotinib. The assay is classed as cell-based, human. Here is the method:
The cell viability was determined by crystal violet assay.
The cells undergoing apoptosis (subG0/G1 fraction) were quantified using flow cytometry. FIGS. 4B and C.
(§1) Cleaved PARP, p-EGFR(Tyr1068), EGFR, p-Hsp27(Ser82), Hsp27, and Beta-actin were assayed.

For the next assay, the system named is A549 lung cancer cells. Nature of the assay: Western blot of protein levels in A549 cells. The assay is classed as cell-based, human. Here is the method: Western blots: To perform Westerns, cell lysates were prepared under non-denaturing conditions. Briefly, the cell lysates were to immunoprecipition, and subsequently immunoblotted using antibody and visualized via electrophoresis and autoradiogram.
48 and 72 hours of exposure.
Protein expression was analyzed by western blotting. […] Flow cytometry was used to quantify the percentage of cells in each cell cycle phase.
as §1
Western gels were run on cell protein prepared under standard non-denaturing conditions, and relative levels of p-Hsp27(Ser82), Hsp27, cleaved PARP, and beta-actin were detected using commercial antibodies from Cell Signalling (Danvers, USA). Protein levels from zero to 48 hours for a 1 microMolar pemetrexed exposure were measured.
72 h later, cell viability was determined by crystal violet assay. […] Protein levels were also determined in these cells by immunoblotting.

A further assay relates to Hsp27 mRNA. Nature of the assay: Hsp27 mRNA expression by quantitative RT-PCR in A549 cells. Particulars: 5 or 10 μM Erlotinib for 24 or 48 hours; normalized to GAPDH mRNA.
Assay [1] deals with PKC-dependent phosphorylation of Hsp27 (Homo sapiens, UniProt P04792). As to conditions: cited from earlier work.
Where [2] appears, read: A549 OE, erlotinib 0 to 20 micromolar, 72 hours.
The mark [3] stands for this setting: A549, erlotinib 0 to 20 micromolar, 72 hours.

Chain of PKC-dependent phosphorylation of Hsp27 (P04792 whole entry): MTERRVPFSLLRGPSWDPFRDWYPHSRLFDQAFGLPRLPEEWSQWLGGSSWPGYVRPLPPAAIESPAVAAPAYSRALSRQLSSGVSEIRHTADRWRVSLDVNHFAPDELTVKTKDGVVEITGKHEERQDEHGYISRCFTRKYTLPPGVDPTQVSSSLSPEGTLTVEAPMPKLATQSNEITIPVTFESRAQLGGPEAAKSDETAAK
Procedure for Hsp27 mRNA: Hsp27 mRNA expression was analyzed by quantitative RT-PCR. Hsp27 mRNA levels were normalized to levels of GAPDH mRNA. Bars, SD. ** and *, differ from control (P<0.01 and P<0.05, respectively).

In the case of `C#Cc1cccc(Nc2ncnc3cc(OCCOC)c(OCCOC)cc23)c1` [Erlotinib, erlotinib], in the assay on HCC827 cells, the “p-EGFR (Tyr068) (Western)” value is reported as “decrease” and the “protein levels of P-Hsp27(ser82), Hsp27 (Western)” value was “increased”. In addition, in the assay on Hsp27 OE A549 cells (setting [2]), the “Cleaved PARP (Western)” value is listed as “increased”, the “p-EGFR(Tyr1068) (Western)” value is reported as “decrease” and the “p-Hsp27(Ser82) (Western)” value is “dose-dependent increase”. In addition, in the assay on Hsp27 OE A549 cells (Hsp27 OE A549 vs Empty A549, varying levels of erlotinib), the “apoptotic rate in cells with Hsp27 overexpression” value is “decreased apoptotic rate”. The “amounts of EGFR, Hsp27 and p-Hsp27 (Western Blot)” value with A549 lung cancer cells (10 μM Erlotinib, 1, 6, 24, 48 and 72 hours) is “Increasing amounts”. In the assay on A549 lung cancer cells (10 μM Erlotinib, 1 to 72 hours), the “cleaved PARP (Western Blot)” value is given as “observed at all times following 24 hours of treatment” and the “p-EGFR (Tyr 1068) (Western Blot)” value is on record as “not observed following treatment”. Further, in the assay on A549 lung cancer cells (48 hours, erlotinib 2.5, 5 and 10 μM), the “p-Hsp27, Hsp27, p-EGFR, EGFR, cleaved PARP (Western Blot), repeat” value was “Qualitatively similar results”. Moreover, in the assay on A549 lung cancer cells (setting [3]), the “Cleaved PARP (Western)” value is on record as “increased” and the “p-EGFR(Tyr1068) (Western)” value is reported as “decrease”. Also, the “Hsp27 mRNA expression” value with Hsp27 mRNA was “increased Hsp27 expression”.
Regarding `CCc1cc(-c2oncc2-c2ccc(OC)cc2)c(O)cc1OC` [KRIBB3, 5-(5-Ethyl-2-hydroxy-4-methoxyphenyl)-4-(4-methoxyphenyl)isoxazole], the IC50 in assay [1] is 0.05 µM.
Take `Nc1nc2[nH]cc(CCc3ccc(C(=O)N[C@@H](CCC(=O)O)C(=O)O)cc3)c2c(=O)[nH]1` [pemetrexed]: the “pHsp27 and cleaved PARP signals (Western)” value in the assay on A549 lung cancer cells (pemetrexed 0, 0.25, 0.5, 1.0 microMoles, zero to 48 hours) is “increase with dose and are greatest at 48 hours”.

For orientation: IC50 means the concentration that inhibits the measured activity by half.

The values are drawn from patent US9717792B2, “Combination therapy for cancer using HSP27 inhibitor and EGFR tyrosine kinase inhibitors or anti-folates” (The University Of British Columbia, priority 2012, dated 2017).
